Values quoted from earlier work as cited in patent US20190091190A1, “COMBINATION THERAPY FOR TREATMENT OF MULTIPLE SCLEROSIS” (FWP IP ApS, priority 2012, published 2019).
Where two headings read alike, the source gives them in different places.

Experiments:
patients with RRMS [1] = conditions: 7 mg po once-daily
[2] = 7 mg and 14 mg, add-on to IFN
RRMS patients [3] = conditions: for time to first relapse during the two years of the study: 45.6% on placebo
[4] = 7 mg or 14 mg added to glatiramer acetate, vs placebo added
RRMS patients [5] = system: RRMS patients
patients with RRMS [6] = conditions: for reduction of 12-week confirmed disability progression as measured by EDSS: at 2 years
RRMS patients [7] = system: RRMS patients; remark: listed apart in the source
RRMS patients [8] = conditions: 0.6 mg once-daily oral
[9] = system: patients with EDSS scores of 0-5.5 and relapses; conditions: for reduction of frequency of MS relapses vs. placebo: 24 months
patients with RRMS [10] = conditions: for reduction of lymphocyte counts: after 1 month; for patients remaining relapse-free: 12 months

For `C/C(O)=C(\C#N)C(=O)Nc1ccc(C(F)(F)F)cc1` [teriflunomide, (Z)-2-cyano-3-hydroxy-but-2-enoic acid-(4′-trifluoro-methylphenyl)-amide], the relapse rate (patients with RRMS [1]) is listed as 0.410, the “reduction in annualized relapse rate” value [2] is listed as “no significant effect” and the “reduction of annualized relapse rate (ARR) at 2 years compared to placebo” value (RRMS patients [3]; 7 mg p.o. once-daily) is listed as 31.2%. For the same compound, the “reduction of risk of disability progression” value (RRMS patients [3]; 7 mg p.o. once-daily) was 24%, the “reduction of the burden of disease (MRI) compared to placebo” value (RRMS patients [3]; 7 mg p.o. once-daily) was 39% and the “time to first relapse during the two years of the study” value (RRMS patients [3]; 7 mg) was 53.7%. The “reduction of annualized relapse rate (ARR) at 2 years compared to placebo” value (RRMS patients [3]; 14 mg p.o. once-daily) was 31.5%, the “reduction of risk of disability progression” value (RRMS patients [3]; 14 mg p.o. once-daily) was 30% and the “reduction of the burden of disease (MRI) compared to placebo” value (RRMS patients [3]; 14 mg p.o. once-daily) was 67%. For the same compound, the “time to first relapse during the two years of the study” value (RRMS patients [3]; 14 mg) was 56.5%, the “reducing T1-Gd lesions” value [4] was “more effective than placebo” and the “annualized relapse rate compared to placebo” value (RRMS patients [5]; 7 mg p.o. once-daily) was “significant reduction”. The “risk of 12 wk sustained accumulation of disability compared to placebo” value (RRMS patients [5]; 7 mg p.o. once-daily) was “no significant difference”, the “reduction in annualized relapse rate compared to placebo” value (RRMS patients [5]; 14 mg p.o. once-daily) was 36.3% and the “reduction in the risk of 12wk sustained accumulation of disability compared to placebo” value (RRMS patients [5]; 14 mg p.o. once-daily) was 31.5%.
In the case of Glatiramer acetate, the “reduction of new T1-hypointense lesions” value (patients with RRMS [6]; 20 mg sc once-daily) is listed as 41%, the “reduction of number of new or newly enlarging T2-hyperintense lesions” value (patients with RRMS [6]; 20 mg sc once-daily) is listed as 54% and the “reduction of proportion of patients who relapsed” value (patients with RRMS [6]; 20 mg sc once-daily) is listed as 29%. The “reduction of 12-week confirmed disability progression as measured by EDSS” value (shortened to “reduction … by EDSS”) (patients with RRMS [6]; 20 mg sc once-daily) was 7%.
For `COC(=O)/C=C/C(=O)OC` [dimethylfumarate, trans-1,2-Ethylenedicarboxylic acid dimethyl ester], the “reduction of annualized relapse rate versus placebo” value (patients with RRMS [6]; 240 mg po BID) is listed as 44%, the “reduction of new T1-hypointense lesions” value (patients with RRMS [6]; 240 mg po BID) is listed as 57% and the “reduction of number of new or newly enlarging T2-hyperintense lesions” value (patients with RRMS [6]; 240 mg po BID) is listed as 71%. The “reduction of proportion of patients who relapsed” value (patients with RRMS [6]; 240 mg po BID) was 34%, the “reduction … by EDSS” value (patients with RRMS [6]; 240 mg po BID) was 21% and the “reduction of annualized relapse rate versus placebo” value (patients with RRMS [6]; 240 mg po TID) was 51%. For the same compound, the “reduction of new T1-hypointense lesions” value (patients with RRMS [6]; 240 mg po TID) was 65%, the “reduction of number of new or newly enlarging T2-hyperintense lesions” value (patients with RRMS [6]; 240 mg po TID) was 73% and the “reduction of proportion of patients who relapsed” value (patients with RRMS [6]; 240 mg po TID) was 45%. The “reduction … by EDSS” value (patients with RRMS [6]; 240 mg po TID) was 24%, the “most common adverse effects” value (patients with RRMS [6]; dimethylfumarate groups (BID and TID)) was “flushing and gastrointestinal (GI) events” and the “reduction in annualized relapse rate versus placebo” value (patients with RRM; 240 po BID) was 53%. For the same compound, the “reduction in proportion of patients who relapsed at 2 years versus placebo (primary endpoint)” value (patients with RRM; 240 po BID) was 49%, the “reduction in annualized relapse rate versus placebo” value (patients with RRM; 240 po TID) was 48% and the “reduction in proportion of patients who relapsed at 2 years versus placebo (primary endpoint)” value (patients with RRM; 240 po TID) was 50%.
For `CCN(C(=O)c1c(O)c2c(Cl)cccc2n(C)c1=O)c1ccccc1` [laquinimod], the “reduced ARR” value (RRMS patients [7]; 0.6 mg once-daily oral, pre-specified sensitivity analysis corrected for baseline imbalances) is listed as 21%, the “reduction in the risk of EDSS progression” value (RRMS patients [7]; 0.6 mg, corrected analysis, p=0.044) is listed as 34% and the “reduction in brain volume loss” value (RRMS patients [7]; 0.6 mg, corrected analysis, p=<0.0001) is listed as 28%. For the same compound, the “primary endpoint of reduction in ARR versus placebo” value (RRMS patients [7]; 0.6 mg, uncorrected, p=0.075) was “did not reach statistical significance”, the “reduction in ARR” value (RRMS patients [8]; 24 months, p=0.0024) was 23% and the “reduction in progression of brain atrophy” value (RRMS patients [8]; p<0.0001) was 33%. For the same compound, the “reduction in the risk of EDDS progression” value (RRMS patients [8]; p=0.0122) was 36%.
In the case of `CCCCCCCCc1ccc(CCC(N)(CO)CO)cc1` [fingolimod], the “AEs that led to discontinuation of the study drug” value ([9]; 0.5 mg) is listed as 7.5 % of patients, the “lymphopenia of less than 0.2×10^9 per liter” value ([9]; 0.5 mg) is listed as 3.5% and the “reduction of frequency of MS relapses vs. placebo” value ([9]; 0.5 mg/day) is listed as 54%. For the same compound, the “reduction of risk of disability progression vs. placebo” value ([9]; 0.5 mg/day, confirmed after 3 months) was 30%, the “reduction of risk of disability progression vs. placebo” value ([9]; 0.5 mg/day, confirmed after 6 months) was 37% and the “AEs that led to discontinuation of the study drug” value ([9]; 1.25 mg) was 14.2 % of patients. The “lymphopenia of less than 0.2×10^9 per liter” value ([9]; 1.25 mg) was 5.4%, the macular edema diagnosed ([9]; 1.25 mg) was “seven” and the “reduction of frequency of MS relapses vs. placebo” value ([9]; 1.25 mg/day) was 60%. For the same compound, the “reduction of risk of disability progression vs. placebo” value ([9]; 1.25 mg/day, confirmed after 3 months) was 32%, the “reduction of risk of disability progression vs. placebo” value ([9]; 1.25 mg/day, confirmed after 6 months) was 40% and the “AE leading to the discontinuation of study medication” value (patients with RRMS [10]; 0.5 mg) was 5.6%. For the same compound, the “overall number of SAE” value (patients with RRMS [10]; 0.5 mg) was 7.0%, the “patients who developed macular edema” value (patients with RRMS [10]; 0.5 mg) was 0.5% and the “reduction of lymphocyte counts” value (patients with RRMS [10]; 0.5 mg) was 73%. The “1-year relapse rate lower than with Avonex” value (patients with RRMS [10]; 0.5 mg/day oral) was 52%, the patients remaining relapse-free (patients with RRMS [10]; 0.5 mg/day oral) was 83% and the “AE leading to the discontinuation of study medication” value (patients with RRMS [10]; 1.25 mg) was 10.0%. For the same compound, the “overall number of SAE” value (patients with RRMS [10]; 1.25 mg) was 10.7%, the “patients who developed macular edema” value (patients with RRMS [10]; 1.25 mg) was 1% and the “reduction of lymphocyte counts” value (patients with RRMS [10]; 1.25 mg) was 77%. For the same compound, the “1-year relapse rate lower than with Avonex” value (patients with RRMS [10]; 1.25 mg/day oral) was 38%, the patients remaining relapse-free (patients with RRMS [10]; 1.25 mg/day oral) was 80% and the “time to development of transient, dose-dependent reduction in heart rate” value (patients with RRMS [10]; after the initial administration) was at most 1 h.
